Data published in US12296027B2, “Molecular renal probes for detecting acute kidney injury” (Nanyang Technological University, priority 2019, dated 2025).
Where “and” joins values, the source holds several entries; their conditions need not be identical. Equal values may be shown once.

Experiments:
[1] = in 3 h, Patients; cited from earlier work
[2] = In vivo biodistribution by NIRF imaging; design: species or system mice; details: i.v., 8 μmol kg^−1 (MRPD 32 μmol kg^−1)
Protocol: All animal studies were performed in compliance with the guidelines set by the Institutional Animal Care and Use Committee (IACUC), Sing Health. Female nude mice (Tac:Cr:(NCr)-Fox1nu, 8 weeks old) were obtained from InVivos Pte Ltd (Singapore). Aged female nude mice (25 weeks old) were obtained by feeding after receive at 8 weeks old. Female Balb/c mice (10 weeks old), male type 2 diabetic BKS-db mice (BKS-Lepr^em2Cd479 with a C57BLKS/J background, 12 weeks old) and male nondiabetic C57BLKS/J wild-type mice (12 weeks) were obtained from Nanjing Biomedical Research Institute of Nanjing University (Nanjing, China). NCr nude mice were i.v. injected with 0.2 ml saline (control), the uncaged fluorophores (CMe, CP2, CP5 and CCD, 8 μmol kg^−1 body weight) or MRPD (32 μmol kg^−1 body weight), and imaged using the IVIS spectrum imaging system at 30 and 60 min post-injection. The abdominal cavity and resected organs from mice were imaged after sacrifice at t=60 min post-injection. Fluorescence images were acquired using the IVIS spectrum imaging system with excitation at 675±10 nm (640±10 nm for MRPD) and emission at 720±10 nm (760±10 nm for MRPD). Fluorescence intensities for each organ were analysed by the region of interest (ROI) analysis using the Living Image 4.3 Software (3 mice were analysed for each sample).

[3] = Renal clearance efficiency studies (urine HPLC); assay type: in vivo; details: healthy mice, i.v.
Protocol: NCr nude mice were i.v. injected with the uncaged fluorophores (CMe, CP2, CP5 and CCD, 8 μmol kg^−1 body weight), MRPs1-3 (8 μmol kg^−1 body weight) or MRPD (32 μmol kg^−1 body weight) and placed in metabolic cages (3 mice were analysed for each sample). […] Urine was collected at 1, 3, 6, 9 and 24 h post-injection, centrifuged at 4500 r.p.m. for 8 min and filtered by 0.22 μm syringe filter. Excretion of the uncaged fluorophores and MRPs in the urine was quantified using HPLC. Mice were sacrificed to image resected organs after 24 h urine collection. Fluorescence intensities for resected organs were analysed by the ROI analysis using the Living Image 4.3 Software. Major organs were collected, homogenised in PBS buffer (10 mM, pH 7.4) and centrifuged at 4500 r.p.m for 15 min to remove insoluble components. Fluorescence intensities of the final supernatants were measured on fluorescence spectrophotometer.
Mice were i.v. injected with ADR (30 μmol kg^−1 body weight) and placed in metabolic cages. Urine was collected at 1, 3, 6, 9 and 24 h post-injection, diluted in PBS and centrifuged at 4500 r.p.m. for 10 min and filtered by 0.22 μm syringe filter. ADR in the urine was quantified using HPLC. The absorption and fluorescence spectra were measured for the urine samples. […]

[4] = Photophysical properties (absorption, fluorescence, quantum yield); assay type: physicochemical
Protocol: Optical measurement. […] The ADR solution (30 μM) was incubated with KO2 (60 μM) and NAG (40 mU), respectively, in PBS (10 mM, pH 7.4) at 37° C. […] Fluorescence images were acquired using the IVIS spectrum imaging system with excitation at 675±10 nm (640±10 nm for MRPD) and emission at 720±10 nm (760±10 nm for MRPD) and the acquisition time of 0.1 s. Chemiluminescence images were acquired under bioluminescence mode with open filter and the acquisition time of 1 s. The sensing capability of MRPs was analysed through HPLC. UV-Vis and fluorescence spectra of the uncaged fluorophores solution (30 μM) in PBS (10 mM, pH 7.4) were recorded on UV-Vis and fluorescence spectrophotometers.
Measurement of fluorescence quantum yields. ICG was used as a standard with a known fluorescence quantum yield (ϕ) value of 13% in DMSO (R. C. Benson, H. A. Kues, J. Chem. Eng. Data 1977, 22, 379-383). Fluorescence quantum yields were calculated using the following equation: ϕs/ϕf=(As/Af)×(Abss/Absf)×(ηs^2/ηf^2), Where ϕs and ϕf are the fluorescence quantum yields of the standard and the samples, respectively; As and Af are the emission areas of the standard and the samples, respectively; Abss and Absf are the absorbance of the standard and the samples at the wavelength of excitation; ηs and ηf are the refractive indices of the standard and the samples, respectively.

| Compound | Renal clearance efficiency [1] [% ID in 3 h] | biodistribution at 1 h post-injection (ex vivo NIRF) [2] | renal clearance efficiency at 24 h post-injection [3] | Renal clearance efficiency (%) ([3]; Table 5) | Stokes shift [4] [nm] | λab, wavelength of maximum absorbance ([4]; PBS pH 7.4) | λem, wavelength of maximum emission ([4]; PBS pH 7.4) |
| --- | --- | --- | --- | --- | --- | --- | --- |
| O=C([O-])CN=C([O-])CN=C([O-])CN=C([O-])C[S-].[O-2].[Tc+4] [^99mTc-MAG3] | 90 | – | – | – | – | – | – |
| C[N+]1=C(/C=C/C2=C3Oc4cc(O)ccc4C=C3CCC2)C(C)(C)c2ccccc21 [CMe] | – | mainly accumulated in the liver, gallbladder, and intestine | nearly undetectable in urine | <5 | 25 | 690 nm and 697 nm | 720 nm and 722 nm |
